These results are taken from patent US20240368135A1 (VERTEX PHARMACEUTICALS INCORPORATED, priority 2021, published 2024).

pIC50: −log10 of the molar value.

The target of one assay is human NaV 1.8 (Homo sapiens, UniProt Q9Y5Y9). In words: E-VIPR assay detecting and measuring NaV inhibition properties. It is filed as cell-based. The following applies: HEK cells expressing truncated human NaV 1.8; in the presence of human serum (compound numbers followed by *); read-out: IC50 in the E-VIPR Assay, performed in the presence of human serum. The essentials: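 Membrane potential was followed by coumarin/oxonol FRET during electrical field stimulation of matrigel-seeded HEK cells carrying truncated human NaV1.8 plus KIR2.1. Dosing used 11 points, 3-fold steps, top 300 nM final, 0.625% DMSO, with or without 25% human serum.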
Sequence of human NaV 1.8 (Q9Y5Y9 126-399 limits assumed): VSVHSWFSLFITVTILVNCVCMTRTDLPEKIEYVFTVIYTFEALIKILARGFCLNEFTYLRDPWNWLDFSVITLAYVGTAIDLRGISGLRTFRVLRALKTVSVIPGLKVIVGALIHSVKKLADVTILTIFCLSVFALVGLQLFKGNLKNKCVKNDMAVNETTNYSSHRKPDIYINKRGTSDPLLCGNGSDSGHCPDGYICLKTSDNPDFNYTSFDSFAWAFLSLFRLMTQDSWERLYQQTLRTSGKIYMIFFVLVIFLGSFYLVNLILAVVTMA
Sequence of human NaV 1.8 (Q9Y5Y9 660-890 limits assumed): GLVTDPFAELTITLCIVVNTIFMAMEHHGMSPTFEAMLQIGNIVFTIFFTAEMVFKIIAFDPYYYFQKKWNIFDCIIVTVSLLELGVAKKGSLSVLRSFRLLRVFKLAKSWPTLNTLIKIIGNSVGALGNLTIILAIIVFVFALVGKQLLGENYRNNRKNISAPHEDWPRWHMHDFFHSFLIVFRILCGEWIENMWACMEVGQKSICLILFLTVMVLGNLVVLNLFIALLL
Sequence of human NaV 1.8 (Q9Y5Y9 1148-1722 limits assumed): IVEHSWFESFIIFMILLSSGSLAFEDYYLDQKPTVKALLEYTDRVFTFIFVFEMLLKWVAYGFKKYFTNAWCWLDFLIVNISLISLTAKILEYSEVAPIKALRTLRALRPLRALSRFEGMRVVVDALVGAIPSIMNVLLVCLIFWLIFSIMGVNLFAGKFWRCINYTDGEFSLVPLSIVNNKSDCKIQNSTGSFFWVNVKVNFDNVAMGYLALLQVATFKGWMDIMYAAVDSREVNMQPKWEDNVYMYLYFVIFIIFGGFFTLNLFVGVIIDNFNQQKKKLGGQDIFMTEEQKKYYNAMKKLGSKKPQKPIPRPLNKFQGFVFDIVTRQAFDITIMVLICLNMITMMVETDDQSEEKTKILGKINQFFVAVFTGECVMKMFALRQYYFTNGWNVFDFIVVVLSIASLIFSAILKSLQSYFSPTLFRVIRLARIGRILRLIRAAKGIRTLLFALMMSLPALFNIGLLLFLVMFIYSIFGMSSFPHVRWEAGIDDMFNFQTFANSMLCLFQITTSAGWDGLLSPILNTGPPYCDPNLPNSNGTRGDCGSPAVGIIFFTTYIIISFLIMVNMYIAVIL
For the molecule `COc1c(C2C(C(=O)Nc3cc(CO)ncc3C)OC(C)(C(F)(F)F)C2C)ccc(F)c1F` (centres unmarked) [Compound 243, 3-(3,4-difluoro-2-methoxy-phenyl)-N-[2-(hydroxymethyl)-5-methyl-4-pyridyl]-4,5-dimethyl-5-(trifluoromethyl)tetrahydrofuran-2-carboxamide], the pIC50 is 7.00 to 8.00.

As to `COc1c([C@@H]2[C@@H](C(=O)Nc3ccnc(C(C)O)c3)O[C@](C)(C(F)(F)F)[C@@H]2C)ccc(F)c1F` (single isomer, unassigned) [Compound 531], the pIC50 was no more than 6.00.

In the case of `COc1c([C@H]2[C@H](C(=O)Nc3cnnc(C(O)CO)c3)O[C@@](C)(C(F)(F)F)[C@H]2C)ccc(F)c1F` (single isomer, unassigned) [Compound 206, rel-(2R*,3S*,4S*,5R*)-3-(3,4-difluoro-2-methoxyphenyl)-N-(6-(1,2-dihydroxyethyl)pyridazin-4-yl)-4,5-dimethyl-5-(trifluoromethyl)tetrahydrofuran-2-carboxamide], the pIC50 was 7.00 to 8.00.

Still in this assay, the particulars now being: HEK cells expressing truncated human NaV 1.8; no human serum; read-out: IC50 in the E-VIPR Assay.
For the molecule `CC(C)Oc1c([C@@H]2[C@@H](C(=O)Nc3ccnc(S(C)(=N)=O)c3)O[C@](C)(C(F)(F)F)[C@@H]2C)ccc(F)c1F` (single isomer, unassigned) [Compound 117], the pIC50 was 6.00 to 7.00.

Consider `COc1c([C@H]2[C@H](C(=O)Nc3ccc(C(N)=O)nc3)O[C@@](C)(C(F)(F)F)[C@H]2C)ccc(F)c1F` [Compound 1, 5-((2R,3S,4S,5R)-3-(3,4-difluoro-2-methoxyphenyl)-4,5-dimethyl-5-(trifluoromethyl)tetrahydrofuran-2-carboxamido)picolinamide], for which the pIC50 was greater than 8.00.

For the molecule `COc1c([C@H]2[C@H](C(=O)Nc3ccnc(C(O)C4CC4)c3)O[C@@](C)(C(F)(F)F)[C@H]2C)ccc(F)c1F` (single isomer, unassigned) [Compound 251, rel-(2R*,3S*,4S*,5R*)-N-(2-(cyclopropyl(hydroxy)methyl)pyridin-4-yl)-3-(3,4-difluoro-2-methoxyphenyl)-4,5-dimethyl-5-(trifluoromethyl)tetrahydrofuran-2-carboxamide], the pIC50 was greater than 8.00.

`C[C@H]1[C@@H](c2ccc(F)c(F)c2OC(F)F)[C@H](C(=O)Nc2ccnc(C(O)CO)c2)O[C@@]1(C)C(F)(F)F` (single isomer, unassigned) [Compound 82]: the negative logarithm of the IC50 (pIC50) is greater than 8.00.

Take `COc1c([C@H]2[C@H](C(=O)NCCc3cnn(C)c3)O[C@@](C)(C(F)(F)F)[C@H]2C)ccc(F)c1F` [Compound 283, (2R,3S,4S,5R)-3-(3,4-difluoro-2-methoxyphenyl)-4,5-dimethyl-N-(2-(1-methyl-1H-pyrazol-4-yl)ethyl)-5-(trifluoromethyl)tetrahydrofuran-2-carboxamide]: the pIC50 was no more than 6.00.

Regarding `CNCc1c([C@H]2[C@H](C(=O)Nc3cn(C(F)F)nc3C)O[C@@](C)(C(F)(F)F)[C@H]2C)ccc(F)c1F` [Compound 671, (2R,3S,4S,5R)-3-(3,4-difluoro-2-((methylamino)methyl)phenyl)-N-(1-(difluoromethyl)-3-methyl-1H-pyrazol-4-yl)-4,5-dimethyl-5-(trifluoromethyl)tetrahydrofuran-2-carboxamide], the pIC50 was 6.00 to 7.00.

As for `CNC1CCN(c2cc(NC(=O)[C@@H]3O[C@@](C)(C(F)(F)F)[C@@H](C)[C@H]3c3ccc(F)c(F)c3OC)ccn2)C1=O` (single isomer, unassigned) [Compound 501, rel-(2R*,3S*,4S*,5R*)-3-(3,4-difluoro-2-methoxyphenyl)-4,5-dimethyl-N-(2-(3-(methylamino)-2-oxopyrrolidin-1-yl)pyridin-4-yl)-5-(trifluoromethyl)tetrahydrofuran-2-carboxamide], the pIC50 is 7.00 to 8.00.

For the molecule `COc1c([C@H]2[C@H](C(=O)Nc3ccnc(C(O)C(F)F)c3)O[C@@](C)(C(F)(F)F)[C@H]2C)ccc(F)c1F` (single isomer, unassigned) [Compound 254, rel-(2R*,3S*,4S*,5R*)-N-(2-(2,2-difluoro-1-hydroxyethyl)pyridin-4-yl)-3-(3,4-difluoro-2-methoxyphenyl)-4,5-dimethyl-5-(trifluoromethyl)tetrahydrofuran-2-carboxamide], the pIC50 is greater than 8.00.

As to `Cc1nocc1NC(=O)[C@@H]1O[C@@](C)(C(F)(F)F)[C@@H](C)[C@H]1c1ccc(F)c(F)c1OCCN1CC(OC(F)F)C1` [Compound 628, (2R,3S,4S,5R)-3-(2-(2-(3-(difluoromethoxy)azetidin-1-yl)ethoxy)-3,4-difluorophenyl)-4,5-dimethyl-N-(3-methylisoxazol-4-yl)-5-(trifluoromethyl)tetrahydrofuran-2-carboxamide], the pIC50 is 7.00 to 8.00.

With `COc1c([C@H]2[C@H](C(=O)Nc3ccnc(N4C(=O)[C@@H]5C[C@H]4CN5)c3)O[C@@](C)(C(F)(F)F)[C@H]2C)ccc(F)c1F` [Compound 483, (2R,3S,4S,5R)-3-(3,4-difluoro-2-methoxyphenyl)-4,5-dimethyl-N-(2-((1S,4S)-3-oxo-2,5-diazabicyclo[2.2.1]heptan-2-yl)pyridin-4-yl)-5-(trifluoromethyl)tetrahydrofuran-2-carboxamide], the pIC50 was 7.00 to 8.00.

Turning to `COc1c([C@H]2[C@H](C(=O)Nc3ncco3)O[C@@](C)(C(F)(F)F)[C@H]2C)ccc(F)c1F` [Compound 196, (2R,3S,4S,5R)-3-(3,4-difluoro-2-methoxyphenyl)-4,5-dimethyl-N-(oxazol-2-yl)-5-(trifluoromethyl)tetrahydrofuran-2-carboxamide], the pIC50 is greater than 8.00.

With `CN=S(C)(=O)c1cc(NC(=O)C2OC(C)(C(F)(F)F)C(C)C2c2ccc(F)c(C)c2OC)ccn1` (centres unmarked) [Compound 152, N-[2-(N,S-dimethylsulfonimidoyl)-4-pyridyl]-3-(4-fluoro-2-methoxy-3-methyl-phenyl)-4,5-dimethyl-5-(trifluoromethyl)tetrahydrofuran-2-carboxamide], the pIC50 is greater than 8.00.

For the molecule `CCOc1c(C2C(C(=O)Nc3ccnc(S(C)(=N)=O)c3)OC(C)(C(F)(F)F)C2C)ccc(F)c1F` (single isomer, unassigned) [Compound 110, 3-(2-ethoxy-3,4-difluoro-phenyl)-4,5-dimethyl-N-[2-(methylsulfonimidoyl)-4-pyridyl]-5-(trifluoromethyl)tetrahydrofuran-2-carboxamide], the pIC50 was greater than 8.00.

On to `C[C@H]1[C@@H](c2ccc(F)c(F)c2OC(F)F)[C@H](C(=O)Nc2ccn3nnnc3c2)O[C@@]1(C)C(F)(F)F` (single isomer, unassigned) [Compound 80], for which the pIC50 was greater than 8.00.

For the molecule `C[C@@H]1[C@H](c2ccc(F)c(F)c2OC(F)F)[C@@H](C(=O)Nc2ccn(C)c(=O)c2)O[C@]1(C)C(F)(F)F` (single isomer, unassigned) [Compound 77], the negative logarithm of the IC50 (pIC50) was no more than 6.00.

Regarding `COc1c([C@H]2[C@H](C(=O)NC3(c4ccccc4)COC3)O[C@@](C)(C(F)(F)F)[C@H]2C)ccc(F)c1F` [Compound 306, (2R,3S,4S,5R)-3-(3,4-difluoro-2-methoxyphenyl)-4,5-dimethyl-N-(3-phenyloxetan-3-yl)-5-(trifluoromethyl)tetrahydrofuran-2-carboxamide], the pIC50 was no more than 6.00.

As to `C[C@H]1[C@@H](c2ccc(F)c(F)c2OC(F)F)[C@H](C(=O)Nc2ccnc(C(C)(C)O)c2)O[C@@]1(C)C(F)(F)F` (single isomer, unassigned) [Compound 84], the pIC50 is greater than 8.00.

In the case of `C[C@H]1[C@@H](c2ccc(F)c(F)c2OCCO)[C@H](C(=O)Nc2cccnc2)O[C@@]1(C)C(F)(F)F` [Compound 575, (2R,3S,4S,5R)-3-[3,4-difluoro-2-(2-hydroxyethoxy)phenyl]-4,5-dimethyl-N-(3-pyridyl)-5-(trifluoromethyl)tetrahydrofuran-2-carboxamide], the pIC50 was greater than 8.00.

Turning to `COc1c([C@H]2[C@H](C(=O)Nc3ccnc(N4CCN[C@H](C)C4=O)c3)O[C@@](C)(C(F)(F)F)[C@H]2C)ccc(F)c1F` [Compound 484, (2R,3S,4S,5R)-3-(3,4-difluoro-2-methoxyphenyl)-4,5-dimethyl-N-(2-((R)-3-methyl-2-oxopiperazin-1-yl)pyridin-4-yl)-5-(trifluoromethyl)tetrahydrofuran-2-carboxamide], the pIC50 was 7.00 to 8.00.

As to `COc1c([C@H]2[C@H](C(=O)NC3CCN(C(C)=O)CC3)O[C@@](C)(C(F)(F)F)[C@H]2C)ccc(F)c1F` [Compound 273, (2R,3S,4S,5R)-N-(1-acetylpiperidin-4-yl)-3-(3,4-difluoro-2-methoxyphenyl)-4,5-dimethyl-5-(trifluoromethyl)tetrahydrofuran-2-carboxamide], the pIC50 was no more than 6.00.

As for `COc1c([C@H]2[C@H](C(=O)NCC3COC(C)(C)C3)O[C@@](C)(C(F)(F)F)[C@H]2C)ccc(F)c1F` (stereo partly drawn) [Compound 284, (2R,3S,4S,5R)-3-(3,4-difluoro-2-methoxyphenyl)-N-((5,5-dimethyltetrahydrofuran-3-yl)methyl)-4,5-dimethyl-5-(trifluoromethyl)tetrahydrofuran-2-carboxamide], the negative logarithm of the IC50 (pIC50) is no more than 6.00.

For the molecule `COc1c([C@H]2[C@H](C(=O)Nc3cc(CO)nn3C)O[C@@](C)(C(F)(F)F)[C@H]2C)ccc(F)c1F` [Compound 20, (2R,3S,4S,5R)-3-(3,4-difluoro-2-methoxy-phenyl)-N-[5-(hydroxymethyl)-2-methyl-pyrazol-3-yl]-4,5-dimethyl-5-(trifluoromethyl)tetrahydrofuran-2-carboxamide], the pIC50 is 7.00 to 8.00.

`COc1c([C@H]2[C@H](C(=O)Nc3ccc(C(C)(O)CF)nc3)O[C@@](C)(C(F)(F)F)[C@H]2C)ccc(F)c1F` (single isomer, unassigned) [Compound 224, rel-(2R*,3S*,4S*,5R*)-3-(3,4-difluoro-2-methoxyphenyl)-N-(6-(1-fluoro-2-hydroxypropan-2-yl)pyridin-3-yl)-4,5-dimethyl-5-(trifluoromethyl)tetrahydrofuran-2-carboxamide]: the negative logarithm of the IC50 (pIC50) was 6.00 to 7.00.
